Results as given in ChEMBL document CHEMBL1201862, “PubChem BioAssay data set” (2004).
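Step 1: Grow cells in 96-well plates. Step 2: Expose to compound for 48 hours at 5 concentrations. Step 3: Interpolate endpoints linearly; if unreached, use highest concentration. GI50 is the concentration that inhibits growth by half.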 Active and inactive are the calls of the source. No stated cut-off is given here; in the data, active = GI50 up to about 1.1 µM and inactive = higher.

What was measured:
Experiment in all cases: DTP human tumour cell line panel, 48 h
MDA-MB-231 = tested on: MDA-MB-231
DU-145 = tested on: DU-145
SW-620 = tested on: SW-620
SNB-19 = tested on: SNB-19
TK-10 = tested on: TK-10
SNB-75 = tested on: SNB-75
SF-295 = tested on: SF-295
OVCAR-5 = tested on: OVCAR-5
ACHN = tested on: ACHN
MCF7 = tested on: MCF7
SR = tested on: SR
786-0 = tested on: 786-0
HCT-116 = tested on: HCT-116
KM12 = tested on: KM12
U-251 = tested on: U-251
OVCAR-4 = tested on: OVCAR-4
CCRF-CEM = tested on: CCRF-CEM
HT-29 = tested on: HT-29
A549 = tested on: A549
SN12C = tested on: SN12C
COLO 205 = tested on: COLO 205
RPMI-8226 = tested on: RPMI-8226
HCC 2998 = tested on: HCC 2998
SF-539 = tested on: SF-539
HCT-15 = tested on: HCT-15
SK-MEL-5 = tested on: SK-MEL-5
NCI-H226 = tested on: NCI-H226
A498 = tested on: A498
CAKI-1 = tested on: CAKI-1
HOP-62 = tested on: HOP-62
M14 = tested on: M14
BT-549 = tested on: BT-549
Malme-3M = tested on: Malme-3M
SF-268 = tested on: SF-268
OVCAR-8 = tested on: OVCAR-8
SK-OV-3 = tested on: SK-OV-3
UO-31 = tested on: UO-31
NCI-H522 = tested on: NCI-H522
IGROV-1 = tested on: IGROV-1
HOP-92 = tested on: HOP-92
MOLT-4 = tested on: MOLT-4
T47D = tested on: T47D
MDA-MB-435 = tested on: MDA-MB-435
OVCAR-3 = tested on: OVCAR-3
NCI-H23 = tested on: NCI-H23
UACC-257 = tested on: UACC-257
PC-3 = tested on: PC-3
SK-MEL-2 = tested on: SK-MEL-2
NCI/ADR-RES = tested on: NCI/ADR-RES
MDA-N = tested on: MDA-N
NCI-H460 = tested on: NCI-H460
RXF 393 = tested on: RXF 393
K562 = tested on: K562
SK-MEL-28 = tested on: SK-MEL-28
UACC-62 = tested on: UACC-62
LOX IMVI = tested on: LOX IMVI
EKVX = tested on: EKVX
Hs-578T = tested on: Hs-578T
HL-60 = tested on: HL-60

Structure (SMILES): O=C(/C=C/c1ccc(-c2ccccc2)cc1)NCc1ccc(C(=O)NCCc2ccccc2)cc1
- GI50 (MDA-MB-231): 38.1 µM (inactive)
- GI50 (DU-145): > 100 µM (inactive)
- GI50 (SW-620): > 100 µM (inactive)
- GI50 (SNB-19): > 100 µM (inactive)
- GI50 (TK-10): > 100 µM (inactive)
- GI50 (SNB-75): 49.3 µM (inactive)
- GI50 (SF-295): > 100 µM (inactive)
- GI50 (OVCAR-5): > 100 µM (inactive)
- GI50 (ACHN): > 100 µM (inactive)
- GI50 (MCF7): 25.4 µM (inactive)
- GI50 (SR): 44.8 µM (inactive)
- GI50 (786-0): 59.2 µM (inactive)
- GI50 (HCT-116): 34.4 µM (inactive)
- GI50 (KM12): > 100 µM (inactive)
- GI50 (U-251): 65.3 µM (inactive)
- GI50 (OVCAR-4): > 100 µM (inactive)
- GI50 (CCRF-CEM): 18.5 µM (inactive)
- GI50 (HT-29): 28.1 µM (inactive)
- GI50 (A549): > 100 µM (inactive)
- GI50 (SN12C): > 100 µM (inactive)
- GI50 (COLO 205): > 100 µM (inactive)
- GI50 (RPMI-8226): > 100 µM (inactive)
- GI50 (HCC 2998): > 100 µM (inactive)
- GI50 (SF-539): 12.3 µM (inactive)
- GI50 (HCT-15): > 100 µM
- GI50 (SK-MEL-5): > 100 µM (inactive)
- GI50 (NCI-H226): > 100 µM (inactive)
- GI50 (A498): > 100 µM (inactive)
- GI50 (CAKI-1): > 100 µM (inactive)
- GI50 (HOP-62): 60.8 µM (inactive)
- GI50 (M14): > 100 µM (inactive)
- GI50 (BT-549): > 100 µM (inactive)
- GI50 (Malme-3M): 31.6 µM (inactive)
- GI50 (SF-268): > 100 µM (inactive)
- GI50 (OVCAR-8): 36.2 µM (inactive)
- GI50 (SK-OV-3): > 100 µM (inactive)
- GI50 (UO-31): > 100 µM (inactive)
- GI50 (NCI-H522): > 100 µM (inactive)
- GI50 (IGROV-1): > 100 µM (inactive)
- GI50 (HOP-92): 54.6 µM (inactive)
- GI50 (MOLT-4): 96.6 µM (inactive)
- GI50 (T47D): > 100 µM (inactive)
- GI50 (MDA-MB-435): > 100 µM (inactive)
- GI50 (OVCAR-3): > 100 µM (inactive)
- GI50 (NCI-H23): > 100 µM (inactive)
- GI50 (UACC-257): > 100 µM (inactive)
- GI50 (PC-3): > 100 µM (inactive)
- GI50 (SK-MEL-2): > 100 µM (inactive)
- GI50 (NCI/ADR-RES): > 100 µM (inactive)
- GI50 (MDA-N): > 100 µM (inactive)
- GI50 (NCI-H460): > 100 µM (inactive)
- GI50 (RXF 393): 24.5 µM (inactive)
- GI50 (K562): 88.5 µM (inactive)
- GI50 (SK-MEL-28): > 100 µM (inactive)
- GI50 (UACC-62): > 100 µM (inactive)
- GI50 (LOX IMVI): 41.1 µM (inactive)
- GI50 (EKVX): > 100 µM (inactive)

Structure (SMILES): CCCCCCCCCCCCC1NC(=N)NC2(CCCO2)C1C(=O)OC (stereo not given)
- GI50 (MDA-MB-231): 4.12 µM (inactive)
- GI50 (DU-145): 15.3 µM (inactive)
- GI50 (SW-620): 1.97 µM (inactive)
- GI50 (SNB-19): 2.76 µM (inactive)
- GI50 (TK-10): 4.79 µM (inactive)
- GI50 (SNB-75): 3.61 µM (inactive)
- GI50 (SF-295): 9.73 µM (inactive)
- GI50 (OVCAR-5): 8.17 µM (inactive)
- GI50 (ACHN): 10.4 µM (inactive)
- GI50 (MCF7): 2.9 µM (inactive)
- GI50 (SR): 2.33 µM (inactive)
- GI50 (786-0): 4.24 µM (inactive)
- GI50 (HCT-116): 2.47 µM (inactive)
- GI50 (KM12): 1.84 µM (inactive)
- GI50 (U-251): 1.64 µM (inactive)
- GI50 (OVCAR-4): 5.51 µM (inactive)
- GI50 (CCRF-CEM): 2.06 µM (inactive)
- GI50 (HT-29): 1.92 µM (inactive)
- GI50 (A549): 13.1 µM (inactive)
- GI50 (SN12C): 8.02 µM (inactive)
- GI50 (COLO 205): 3.03 µM (inactive)
- GI50 (RPMI-8226): 2.61 µM (inactive)
- GI50 (HCC 2998): 6.37 µM (inactive)
- GI50 (SF-539): 4.9 µM (inactive)
- GI50 (HCT-15): 16.7 µM
- GI50 (SK-MEL-5): 5.47 µM (inactive)
- GI50 (NCI-H226): 14.6 µM (inactive)
- GI50 (Hs-578T): 2.72 µM (inactive)
- GI50 (A498): 23.3 µM (inactive)
- GI50 (CAKI-1): 12.8 µM (inactive)
- GI50 (HOP-62): 7.18 µM (inactive)
- GI50 (M14): 3.33 µM (inactive)
- GI50 (BT-549): 4.3 µM (inactive)
- GI50 (Malme-3M): 2.23 µM (inactive)
- GI50 (SF-268): 3.84 µM (inactive)
- GI50 (OVCAR-8): 4.68 µM (inactive)
- GI50 (SK-OV-3): 10 µM (inactive)
- GI50 (UO-31): 15.3 µM (inactive)
- GI50 (NCI-H522): 3.45 µM (inactive)
- GI50 (IGROV-1): 2.3 µM (inactive)
- GI50 (HOP-92): 5.09 µM (inactive)
- GI50 (MOLT-4): 1.75 µM (inactive)
- GI50 (HL-60): 1.53 µM (inactive)
- GI50 (T47D): 6.4 µM (inactive)
- GI50 (MDA-MB-435): 3.34 µM (inactive)
- GI50 (OVCAR-3): 3.52 µM (inactive)
- GI50 (NCI-H23): 4.39 µM (inactive)
- GI50 (UACC-257): 4.3 µM (inactive)
- GI50 (PC-3): 1.67 µM (inactive)
- GI50 (SK-MEL-2): 4.29 µM (inactive)
- GI50 (NCI/ADR-RES): 17.6 µM (inactive)
- GI50 (NCI-H460): 2.99 µM (inactive)
- GI50 (RXF 393): 3 µM (inactive)
- GI50 (K562): 1.91 µM (inactive)
- GI50 (SK-MEL-28): 5.52 µM (inactive)
- GI50 (UACC-62): 3.89 µM (inactive)
- GI50 (LOX IMVI): 1.69 µM (inactive)
- GI50 (EKVX): 17.5 µM (inactive)

Structure (SMILES): COC(=O)c1cc(C#Cc2cc(OC)ccc2OC)ccc1OC
- GI50 (MDA-MB-231): > 100 µM (inactive)
- GI50 (SW-620): > 100 µM (inactive)
- GI50 (SNB-19): > 100 µM (inactive)
- GI50 (TK-10): 54.6 µM (inactive)
- GI50 (SNB-75): 33.8 µM (inactive)
- GI50 (SF-295): < 0.01 µM (active)
- GI50 (OVCAR-5): > 100 µM (inactive)
- GI50 (ACHN): 42.7 µM (inactive)
- GI50 (MCF7): 36.5 µM (inactive)
- GI50 (SR): 26.8 µM (inactive)
- GI50 (786-0): 51.3 µM (inactive)
- GI50 (KM12): 43.9 µM (inactive)
- GI50 (U-251): 95.1 µM (inactive)
- GI50 (OVCAR-4): 46.7 µM (inactive)
- GI50 (HT-29): 38.5 µM (inactive)
- GI50 (A549): 34.8 µM (inactive)
- GI50 (COLO 205): 24.5 µM (inactive)
- GI50 (RPMI-8226): 13.9 µM (inactive)
- GI50 (HCC 2998): > 100 µM (inactive)
- GI50 (HCT-15): 40.3 µM
- GI50 (SK-MEL-5): 24.4 µM (inactive)
- GI50 (NCI-H226): 67 µM (inactive)
- GI50 (Hs-578T): > 100 µM (inactive)
- GI50 (CAKI-1): 60 µM (inactive)
- GI50 (M14): 34.8 µM (inactive)
- GI50 (BT-549): 37.7 µM (inactive)
- GI50 (Malme-3M): 44.3 µM (inactive)
- GI50 (SF-268): 75.7 µM (inactive)
- GI50 (OVCAR-8): 37.1 µM (inactive)
- GI50 (SK-OV-3): 45.4 µM (inactive)
- GI50 (UO-31): 40.1 µM (inactive)
- GI50 (NCI-H522): 37.8 µM (inactive)
- GI50 (IGROV-1): 53.2 µM (inactive)
- GI50 (HOP-92): 22.9 µM (inactive)
- GI50 (MOLT-4): 19.3 µM (inactive)
- GI50 (HL-60): 31.1 µM (inactive)
- GI50 (T47D): 2.04 µM (inactive)
- GI50 (MDA-MB-435): 41.3 µM (inactive)
- GI50 (NCI-H23): 41.4 µM (inactive)
- GI50 (UACC-257): 37.2 µM (inactive)
- GI50 (PC-3): 40.7 µM (inactive)
- GI50 (SK-MEL-2): 43.5 µM (inactive)
- GI50 (NCI/ADR-RES): 47.5 µM (inactive)
- GI50 (MDA-N): 30.3 µM (inactive)
- GI50 (NCI-H460): 56.8 µM (inactive)
- GI50 (RXF 393): 21.3 µM (inactive)
- GI50 (K562): < 0.01 µM (active)
- GI50 (SK-MEL-28): > 100 µM (inactive)
- GI50 (LOX IMVI): 32.1 µM (inactive)
- GI50 (EKVX): 40.9 µM (inactive)
